Experimental data: publication PMC5114558, “Reader domain specificity and lysine demethylase-4 family function” (Nature Communications, 2016)
“Also recorded” adds a separate entry of the source.

Legend:
Assay type in all cases: biochemical, human
[1] = system: KDM4B full-length protein; assay: MS-based demethylation assay, full-length KDM4B; conditions: 0.2 μM enzyme, 5–10 μM peptide, pH 7.5, 25 °C, MS read-out, single peptide substrates, Fig. 6a,b
Procedure: (§1) In a typical demethylase reaction, the assay mixture containing 50 mM Tris pH 7.5, 50 mM NaCl, 50 μM (NH4)2Fe(SO4)2, 0.5 mM ascorbic acid, 1 mM α-ketoglutarate and 0.2 μM full-length KDM4A–C (Active Motif) was mixed with 5–10 μM of trimethylated histone peptides (detailed sequence information in Supplementary Table 1). Each peptide concentration was quantified by measuring Abs280nm for peptides containing either tryptophan or tyrosine residue. After incubation of assay mixture at 25 °C for 10, 30 and 60 min time point, 10 μl of aliquot was transferred to a clean tube containing 5 μl of 5% formic acid to quench the reaction. Each quenched sample was treated with standard StageTip protocol using C18 extraction disk (Model 2215, Empore, 3 M) to remove excess salts and detergents in the reaction mixture. Each eluate from StageTip containing peptides was dried at a reduced pressure (vacuum centrifuge) and was re-suspended with 10 μl of 5% acetonitrile solution (0.1% formic acid). The 1 μl of the sample was injected at 0.7 μl min^−1 flow rate onto a Dionex Ultimate 3000 Nano LC system equipped with Atlantis dC18 NanoEase reverse-phase column (3 μm, 100 μm × 150 mm, Waters) and coupled to a hybrid quadrupole-orbitrap MS (Q-Exactive, Thermo Scientific). The peptide was eluted at 4–15 min retention time with a linear gradient of 2–35% acetonitrile (0.1% formic acid). All the solvents used for liquid chromatography MS were HPLC grade (Fisher). For each analysis, MS1 scan range of 300–1,100 m/z was used and data-dependent MS/MS was obtained to identify the site of demethylation. Each peptide peak and its area integration was performed on the XCalibur Qual Browser.

KDM4A full-length = assay: MS-based demethylation assay, 1:1 substrate competition, full-length KDM4A; conditions: 1:1 (5 μM:5 μM) H3K36me3 and H3K23me3K36me3, MS; Supplementary Fig. 7d-e
Procedure: as §1, with “All the solvents used for liquid chromatography MS were HPLC grade (Fisher). For each analysis, MS1 scan range of 300–1,100 m/z was used and data-dependent MS/MS was obtained to identify the site of demethylation. Each peptide peak and its area integration was performed on the XCalibur Qual Browser.” left out

KDM4C full-length = assay: MS-based demethylation assay, 1:1 substrate competition, full-length KDM4C; conditions: 1:1 (5 μM:5 μM) H3K36me3 and H3K23me3K36me3, MS; Supplementary Fig. 7d-e
Procedure: as §1, with “All the solvents used for liquid chromatography MS were HPLC grade (Fisher). For each analysis, MS1 scan range of 300–1,100 m/z was used and data-dependent MS/MS was obtained to identify the site of demethylation. Each peptide peak and its area integration was performed on the XCalibur Qual Browser.” left out

[2] = system: KDM4B full-length protein; assay: MS-based demethylation assay, 1:1 substrate competition, full-length KDM4B; conditions: 1:1 (5 μM:5 μM) H3K36me3 and H3K23me3K36me3, 25 °C, P<0.01 (Fig. 6c)
Procedure: as §1, with “All the solvents used for liquid chromatography MS were HPLC grade (Fisher). For each analysis, MS1 scan range of 300–1,100 m/z was used and data-dependent MS/MS was obtained to identify the site of demethylation. Each peptide peak and its area integration was performed on the XCalibur Qual Browser.” left out

H3K23me3K36me3: demethylation assay peptide, Tufts University Core Facility
demethylation by full-length KDM4B [1]: faster rates of H3K36me2 and H3K36me1 product formation | demethylation by full-length KDM4B ([1]; listed as H3(20–42)K23me3K36me3): increases H3K36me3 conversion to H3K36me1/2 | preferential demethylation by KDM4A in 1:1 mixture (KDM4A full-length): preferentially demethylates dually modified peptide; also recorded: enhanced for KDM4A and KDM4B but not KDM4C | preferential demethylation by KDM4C in 1:1 mixture (KDM4C full-length): not KDM4C | preferential demethylation by KDM4B in 1:1 mixture [2]: preferentially demethylates dually modified peptide; also recorded: preferentially demethylate H3K36me3 in the context of dually modified peptide
